Converted amounts (≈) assume the structure as drawn. Read-outs that look alike come from different tables or passages of the source.
What was measured:
Type in all cases: cell-based
Bacillus subtilis (Bs) = assay: Minimum inhibitory concentration (MIC) in nutrient agar, Bacillus subtilis
Method: (§1) The antimicrobial activity of the compounds of the present invention is set forth as the minimum inhibitory concentration (MIC) for the active compounds and is determined for nine (9) bacteria, using nutrient agar, and seven (7) yeast and fungi, using malt yeast agar. This determination is conducted using a one percent solution of the test compound prepared in a mixture of acetone and water.
(§2) Nutrient agar is prepared at pH 6.8, representing a neutral medium, and at pH 8.2, representing an alkaline medium. The nutrient agars are prepared by adding 23 g of nutrient agar to one-liter of deionized water. In addition, the alkaline medium is prepared by adjusting a 0.04M solution of N-[tris-(hydroxymethyl)methyl]glycine buffered deionized water with concentrated sodium hydroxide to a pH of 8.5.
(§3) The test tubes containing the agar are cooled in a water bath until the temperature of the agar is 48° C. Then, an appropriate amount of the one percent solution of the test compound is added (except in the controls where no compound is added) to the respective test tubes so that the final concentrations are 500, […], 100, 50, 25, 10, 5, 2.5, 1.0 and zero parts per million of the test compound in the agar, thus having a known concentration of test compound dispersed therein. The contents of the test tubes are then transferred to respective petri plates. After drying for 24 hours, the petri plates containing nutrient agar are inoculated with bacteria and those containing malt yeast agar are inoculated with yeast and fungi.
(§4) The inoculation with bacteria is accomplished by using the following procedure. Twenty-four hour-cultures of each of the bacteria are prepared by incubating the respective bacteria in tubes containing nutrient broth for 24 hours at 30° C. in a shaker. Dilutions of each of the 24 hour-cultures are made so that nine separate suspensions (one for each of the nine test bacteria) are made, each containing 10^8 colony forming units (CFU) per mL of suspension of a particular bacteria. Aliquots of 0.3 mL of each of the bacterial suspensions are used to fill the individual wells of Steer's Replicator. For each microbial suspension, 0.3 mL was used to fill three wells (i.e., three wells of 0.3 mL each) so that for the nine different bacteria, 27 wells are filled. The Steer's Replicator is then used to inoculate both the neutral and alkaline pH nutrient agar petri plates.
(§5) The inoculated petri plates are incubated at 30° C. for 48 hours and then read to determine if the test compound which is incorporated into the agar prevented growth of the respective bacteria.

[1] = tested on: Enterobacter aerogenes (Ea); assay: Minimum inhibitory concentration (MIC) in nutrient agar, Enterobacter aerogenes; details: Klebsiella aerogenes, 48 h
Method: as §1, §2, §3, §4, §5

Escherichia coli (Ec) = assay: Minimum inhibitory concentration (MIC) in nutrient agar, Escherichia coli; details: 48 h
Method: as §1, §2, §3, §4, §5

[2] = tested on: Klebsiella pneumoniae (Kp); assay: Minimum inhibitory concentration (MIC) in nutrient agar, Klebsiella pneumoniae
Method: as §1, §2, §3, §4, §5

Proteus vulgaris (Pv) = assay: Minimum inhibitory concentration (MIC) in nutrient agar, Proteus vulgaris; details: 48 h
Method: as §1, §2, §3, §4, §5

[3] = tested on: Pseudomonas aeruginosa (PRD-10); assay: Minimum inhibitory concentration (MIC) in nutrient agar, Pseudomonas aeruginosa PRD-10; details: 48 h
Method: as §1, §2, §3, §4, §5

[4] = tested on: Pseudomonas aeruginosa (Pa); assay: Minimum inhibitory concentration (MIC) in nutrient agar, Pseudomonas aeruginosa; details: 30° C., 48 hours, read-out: Minimum Inhibitory Concentration, Pa
Method: as §1, §2, §3, §4, §5

[5] = tested on: Salmonella choleraesuis (Se); assay: Minimum inhibitory concentration (MIC) in nutrient agar, Salmonella choleraesuis; details: Salmonella enterica, 48 h
Method: as §1, §2, §3, §4, §5

[6] = tested on: Staphylococcus aureus (Sa); assay: Minimum inhibitory concentration (MIC) in nutrient agar, Staphylococcus aureus
Method: as §1, §2, §3, §4, §5

Aspergillus niger (An) = assay: Minimum inhibitory concentration (MIC) in malt yeast agar, Aspergillus niger; details: pH 5.5; malt yeast agar, 30° C., 72 hours for fungi; read-out: Minimum Inhibitory Concentration, An
Method: as §1
(§6) Malt yeast agar is prepared at pH 5.5 by adding 3 g yeast extract and 45 g malt agar per liter of deionized water. The specific agar is dispensed in 30 mL aliquots into 25×200 mm test tubes, capped and autoclaved for 15 minutes at 115° C.
as §3
(§7) The inoculation with the yeast and fungi is accomplished as follows. Cultures of yeast and fungi are incubated for seven days on malt yeast agar at 30° C. These cultures are used to prepare suspensions by the following procedure. A suspension of each organism is prepared by adding 10 mL of sterile saline and 10 microliters of octylphenoxy polyethoxy ethanol to the agar slant of yeast or fungi. The sterile saline/octylphenoxy potyethoxy ethanol solution is then agitated with a sterile swab to suspend the microorganism grown on the slant. Each resulting suspension is diluted into sterile saline (1 part suspension: 9 parts sterile saline). Aliquots of these dilutions are placed in individual wells of Steer's Replicator and petri plates inoculated as previously described. The petri plates are incubated at 30° C. and read after 48 hours for yeast and 72 hours for fungi.

Candida albicans (Ca) = assay: Minimum inhibitory concentration (MIC) in malt yeast agar, Candida albicans; details: 48 h, pH 5.5, read-out: Minimum Inhibitory Concentration, Ca
Method: as §1, §6, §3, §7

[7] = tested on: Penicillium chrysogenum (Pc); assay: Minimum inhibitory concentration (MIC) in malt yeast agar, Penicillium chrysogenum; details: 72 h, pH 5.5, read-out: Minimum Inhibitory Concentration, PC
Method: as §1, §6, §3, §7

[8] = tested on: Saccharomyces cerevisiae (Sc); assay: Minimum inhibitory concentration (MIC) in malt yeast agar, Saccharomyces cerevisiae; details: pH 5.5, malt yeast agar, 30° C., 48 hours for yeast, read-out: Minimum Inhibitory Concentration, SC
Method: as §1, §6, §3, §7

Trichoderma viride (Tv) = assay: Minimum inhibitory concentration (MIC) in malt yeast agar, Trichoderma viride; details: 72 h, pH 5.5, read-out: Minimum Inhibitory Concentration, Tv
Method: as §1, §6, §3, §7

[9] = tested on: Aureobasidium pullulan (Ap); assay: Minimum inhibitory concentration (MIC) in malt yeast agar, Aureobasidium pullulan; details: pH 5.5; malt yeast agar, 30° C.; read-out: Minimum Inhibitory Concentration, Ap
Method: as §1, §6, §3, §7

Fusarium oxysporum (Fo) = assay: Minimum inhibitory concentration (MIC) in malt yeast agar, Fusarium oxysporum; details: pH 5.5; malt yeast agar, 30° C., 72 hours for fungi; read-out: Minimum Inhibitory Concentration, Fo
Method: as §1, §6, §3, §7

`CSc1ccc(-c2nsnc2SC#N)cc1` [Example IX, 4-(4-Methylthiophenyl)-3-thiocyanato-1,2,5-thiadiazole] showed an MIC (Bacillus subtilis (Bs); 48 h, pH 8.2, read-out: Minimum Inhibitory Concentration, Bs) of 250 µg/mL (≈ 942 µM), an MIC (Bacillus subtilis (Bs); pH 6.8, nutrient agar, 30° C., 48 hours, read-out: Minimum Inhibitory Concentration, Bs) of less than 10 µg/mL and an MIC ([1]; pH 6.8, read-out: Minimum Inhibitory Concentration, Ea) greater than 500 µg/mL. It also gave an MIC ([1]; pH 8.2, read-out: Minimum Inhibitory Concentration, Ea) of 500 µg/mL (≈ 1880 µM), an MIC (Escherichia coli (Ec); pH 6.8, read-out: Minimum Inhibitory Concentration, Ec) greater than 500 µg/mL and an MIC (Escherichia coli (Ec); pH 8.2, read-out: Minimum Inhibitory Concentration, Ec) of 500 µg/mL (≈ 1880 µM). The MIC ([2]; 48 h, pH 8.2, read-out: Minimum Inhibitory Concentration, Kp) was 500 µg/mL (≈ 1880 µM), the MIC ([2]; pH 6.8, nutrient agar, 30° C., 48 hours, read-out: Minimum Inhibitory Concentration, Kp) was greater than 500 µg/mL and the MIC (Proteus vulgaris (Pv); pH 6.8, read-out: Minimum Inhibitory Concentration, Pv) was greater than 500 µg/mL. The MIC (Proteus vulgaris (Pv); pH 8.2, read-out: Minimum Inhibitory Concentration, Pv) was 500 µg/mL (≈ 1880 µM), the MIC ([3]; pH 6.8, read-out: Minimum Inhibitory Concentration, PRD) was greater than 500 µg/mL and the MIC ([3]; pH 8.2, read-out: Minimum Inhibitory Concentration, PRD) was 500 µg/mL (≈ 1880 µM). The MIC ([4]; pH 6.8, nutrient agar) was greater than 500 µg/mL, the MIC ([4]; pH 8.2, nutrient agar) was 500 µg/mL (≈ 1880 µM) and the MIC ([5]; pH 6.8, read-out: Minimum Inhibitory Concentration, SC) was greater than 500 µg/mL. For the same compound, the MIC ([5]; pH 8.2, read-out: Minimum Inhibitory Concentration, SC) was 500 µg/mL (≈ 1880 µM), the MIC ([6]; 48 h, pH 6.8, read-out: Minimum Inhibitory Concentration, Sa) was 50 µg/mL (≈ 188 µM) and the MIC ([6]; pH 8.2, nutrient agar, 30° C., 48 hours, read-out: Minimum Inhibitory Concentration, Sa) was 250 µg/mL (≈ 942 µM). The MIC (Aspergillus niger (An)) was less than 10 µg/mL, the MIC (Candida albicans (Ca)) was 50 µg/mL (≈ 188 µM) and the MIC [7] was less than 10 µg/mL. The MIC [8] was less than 10 µg/mL, the MIC (Trichoderma viride (Tv)) was less than 10 µg/mL and the MIC [9] was less than 10 µg/mL. For the same compound, the MIC (Fusarium oxysporum (Fo)) was less than 10 µg/mL.
